Test results reported in patent US20230276792A1, “SELECTIVE HERBICIDES BASED ON SUBSTITUTED ISOXAZOLIN CARBOXAMIDES AND CLOQUINTOCET-MEXYL” (Bayer Aktiengesellschaft, priority 2020, published 2023).

What was measured:
Assay type in all cases: in vivo
[1] = tested on: spring wheat, TRZAS Triso; assay: Safener seed treatment, post-emergence herbicide application, crop damage; conditions: for HER effect + SAF [%] / Reduction [%]: cloquintocet-mexyl 0, 5 g a.i./kg seed; for HER effect [%]: without safener
From the text: (§1) For safener seed treatment trials, sufficient seed amounts of the respective crops (spring wheat (TRZAS); spring barley (HORVS)) were weighed into screw cap glass bottles with a minimum volume trice of the seeds.
(§2) As a first step, specified safeners formulated as wettable powder (WP) or wettable granules (WG) were weighed out for the required dosages (g a.i./kg seed), corresponding to the seed amounts. The safener amounts were mixed with a coloured slurry blind formulation type, pre-diluted with milk at 3.5% fat rate (25 mgs slurry formulation plus 2 ml milk per 10 grams of seed). A tube roller was used for coating. The solutions were gradually pipetted each on the rotating seeds followed by coating for min. 3 hours until all liquid had been soaked up by the seeds. Thereafter, the coated seeds were put flat on open trays for drying over night at room temperature.
(§3) Treated seeds were then placed into pots (7 cm diameter) on the surface of sandy loam, pressed down, flat covered with additional soil and finally covered with sandy soil, also pressed down, watered, and kept under good growth conditions in a greenhouse, until the plants had reached 2-leaf-stage (BBCH 12).
(§4) At that stage, post-emergence application of the specified herbicides was done on: • a) pot sets containing plants with safener-coated seeds as described above, • b) as a reference, pot sets of plants without seed treatment.
(§5) The herbicides were formulated as wettable powder (WP). Equivalent to the spray area, compound amounts were weighed out and diluted related to the water application rate (300 l/ha) to an aqueous suspension plus additive (1 l/ha MERO). Dosage related equivalents were conventionally sprayed on trays with the potted plants.
(§6) After application, the test plants were kept under good growth conditions in a greenhouse. Assessment timings were 10 and 21 days after treatment (DAT) with the herbicide, by visual scoring of the crop damage in % (comparison of untreated with treated plants, either sprayed only with herbicide or with herbicide on plants with treated seeds).
(§7) Reduction [Difference]=herbicide damage without safener−herbicide damage with safener
(§8) Reduction [%]=(Reduction [Difference]*100)/herbicide damage without safener
(§9) b) Plant Species, Variety: TRZAS Triso, Safener (SAF): Cloquintocet-Mexyl

[2] = tested on: spring wheat, TRZAS Triso; assay: Tank-mix post-emergence crop damage, herbicide with and without safener cloquintocet-mexyl, greenhouse; set-up: key to Reduction [Difference]: percentage points of damage: damage without safener minus damage with safener
Experimental: (§10) Seeds of crops (spring wheat, TRZAS; spring barley, HORVS; maize, ZEAMA) were placed in sandy loam soil in peat pots, covered with soil and cultivated in a greenhouse under good growth conditions. Two to three weeks after sowing, the test plants were treated at the 1 to 3-leaf stage. The herbicide/safener active compound combinations according to the invention, formulated as wettable powders or emulsion concentrates, and, in parallel tests, the correspondingly formulated individual active compounds were sprayed onto the green parts of the plants in various dosages using an amount of water of 300 l/ha (converted).
(§11) The pots were returned under good growing conditions in a glasshouse and a visual assessment of herbicidal effects was made at intervals from 1 to 3 weeks after herbicide application (DAT=days after treatment). Assessment was on a percentage basis in comparison with untreated control plants (0%=no injury, 100%=complete kill).
as §7, §8, §9

[3] = tested on: spring barley, HORVS Montoya; assay: as above; set-up: key to Reduction [Difference]: damage without safener − damage with safener, % points (0–100% scale)
Experimental: as §10, §11, §7, §8
(§12) a) Plant Species, Variety: HORVS Montoya, Safener (SAF): Cloquintocet-Mexyl

[4] = tested on: spring barley, HORVS Montoya; assay: Safener seed treatment, post-emergence herbicide application, crop damage; set-up: key to Reduction [Difference]: % crop damage without safener minus % damage with safener; conditions: for HER effect + SAF / Reduction [%] / Reduction [Difference]: cloquintocet-mexyl 0, 5 g a.i./kg seed; for HER effect: without safener
From the text: as §1, §2, §3, §4, §5, §6, §7, §8, §12

[5] = 21 DAT, HER dose 8 g a.i./ha, cloquintocet-mexyl 50 g a.i./ha
[6] = 21 DAT, HER dose 32 g a.i./ha, cloquintocet-mexyl 100 g a.i./ha
[7] = 10 DAT, HER dose 32 g a.i./ha, cloquintocet-mexyl 100 g a.i./ha
[8] = 10 DAT, HER dose 2 g a.i./ha, cloquintocet-mexyl 50 g a.i./ha
[9] = 21 DAT, HER dose 1, 5 g a.i./ha
[10] = 21 DAT, HER dose 1, 5 g a.i./ha, cloquintocet-mexyl 50 g a.i./ha
[11] = 10 DAT, HER dose 1 g a.i./ha, cloquintocet-mexyl 50 g a.i./ha
[12] = 21 DAT, HER dose 16 g a.i./ha, cloquintocet-mexyl 100 g a.i./ha
[13] = 10 DAT, HER dose 8 g a.i./ha, cloquintocet-mexyl 50 g a.i./ha

C=CC1(C(=O)NC2C=CC(C(=O)O)C2)CC(c2cc(F)cc(F)c2)=NO1 (stereo not drawn) [Example 1.58]
HER effect + SAF [%] ([1]; 21 DAT, HER dose 2 g a.i./ha): 0% | HER effect [%] ([1]; 21 DAT, HER dose 2 g a.i./ha): 85% | HER effect + SAF [%] ([1]; 21 DAT, HER dose 8 g a.i./ha): 10% | HER effect [%] ([1]; 21 DAT, HER dose 8 g a.i./ha): 93% | HER effect + SAF [%] ([1]; 21 DAT, HER dose 32 g a.i./ha): 20% | Reduction [%] ([1]; 21 DAT, HER dose 32 g a.i./ha): 78% | HER effect [%] ([1]; 21 DAT, HER dose 32 g a.i./ha): 93% | HER effect + SAF [2, 5]: 50% | Reduction [%] [2, 5]: 46% | Reduction [Difference] [2, 5]: 43 | HER effect + SAF [2, 6]: 60% | Reduction [%] [2, 6]: 35% | Reduction [Difference] [2, 6]: 33

C=CC1(C(=O)NC2COC(C(=O)OC)C2)CC(c2cc(C)cc(F)c2)=NO1 (mixture of isomers) [Example 1.71]
HER effect + SAF [%] ([1]; 10 DAT, HER dose 8 g a.i./ha): 0% | HER effect [%] ([1]; 10 DAT, HER dose 8 g a.i./ha): 50% | HER effect + SAF [%] ([1]; 10 DAT, HER dose 32 g a.i./ha): 0% | HER effect [%] ([1]; 10 DAT, HER dose 32 g a.i./ha): 85% | Reduction [%] [3, 6]: 57% | Reduction [Difference] [3, 6]: 40 | HER effect + SAF [2, 7]: 10% | Reduction [%] [2, 7]: 88% | Reduction [Difference] [2, 7]: 75

COCCOC(=O)C1C=CC(NC(=O)C2(C)CC(c3cc(Cl)cc(C#N)c3)=NO2)C1 (stereo not drawn) [Example 1.5]
HER effect + SAF [%] ([1]; 21 DAT, HER dose 8 g a.i./ha): 10% | HER effect [%] ([1]; 21 DAT, HER dose 8 g a.i./ha): 90% | HER effect + SAF [%] ([1]; 21 DAT, HER dose 32 g a.i./ha): 30% | HER effect [%] ([1]; 21 DAT, HER dose 32 g a.i./ha): 95% | HER effect + SAF ([4]; 21 DAT, HER dose 8 g a.i./ha): 10% | Reduction [%] ([4]; 21 DAT, HER dose 8 g a.i./ha): 80% | Reduction [Difference] ([4]; 21 DAT, HER dose 8 g a.i./ha): 40 | HER effect + SAF ([4]; 21 DAT, HER dose 32 g a.i./ha): 20% | Reduction [%] ([4]; 21 DAT, HER dose 32 g a.i./ha): 75% | Reduction [Difference] ([4]; 21 DAT, HER dose 32 g a.i./ha): 60 | HER effect + SAF [2, 8]: 20% | Reduction [%] [2, 8]: 60% | Reduction [Difference] [2, 8]: 30

CC1(C(=O)NC2COC(C(=O)OCc3ccccc3)C2)CC(c2cccc(F)c2)=NO1 (mixture of isomers) [Example 1.79]
HER effect + SAF [%] ([1]; 10 DAT, HER dose 6 g a.i./ha): 0% | HER effect [%] ([1]; 10 DAT, HER dose 6 g a.i./ha): 30% | HER effect + SAF [%] ([1]; 10 DAT, HER dose 24 g a.i./ha): 10% | HER effect [%] ([1]; 10 DAT, HER dose 24 g a.i./ha): 50% | Reduction [%] ([4]; 10 DAT, HER dose 24 g a.i./ha): 86% | Reduction [Difference] ([4]; 10 DAT, HER dose 24 g a.i./ha): 60 | Reduction [Difference] ([2]; 10 DAT, HER dose 24 g a.i./ha, cloquintocet-mexyl 100 g a.i./ha): 50

C=CC1(C(=O)NC2C=C(C(=O)OCC#N)OC2)CC(c2cc(F)cc(F)c2)=NO1 (stereo not drawn) [Example 1.91]
HER effect + SAF [%] [1, 9]: 20% | Reduction [%] [1, 9]: 71% | HER effect [%] [1, 9]: 70% | HER effect + SAF [%] ([1]; 21 DAT, HER dose 6 g a.i./ha): 30% | HER effect [%] ([1]; 21 DAT, HER dose 6 g a.i./ha): 90% | HER effect + SAF [%] ([1]; 21 DAT, HER dose 24 g a.i./ha): 20% | Reduction [%] ([1]; 21 DAT, HER dose 24 g a.i./ha): 75% | HER effect [%] ([1]; 21 DAT, HER dose 24 g a.i./ha): 80% | Reduction [%] [2, 10]: 71% | Reduction [Difference] [2, 10]: 50 | Reduction [%] ([2]; 21 DAT, HER dose 24 g a.i./ha, cloquintocet-mexyl 100 g a.i./ha): 75%

CC1(C(=O)NC2C=CC(C(=O)O)C2)CC(c2cc(F)cc(F)c2)=NO1 (stereo not drawn) [Example 1.36]
HER effect + SAF [%] ([1]; 21 DAT, HER dose 1 g a.i./ha): 0% | HER effect [%] ([1]; 21 DAT, HER dose 1 g a.i./ha): 85% | HER effect + SAF [%] ([1]; 21 DAT, HER dose 4 g a.i./ha): 60% | Reduction [%] ([1]; 21 DAT, HER dose 4 g a.i./ha): 35% | HER effect [%] ([1]; 21 DAT, HER dose 4 g a.i./ha): 93% | HER effect + SAF [%] ([1]; 21 DAT, HER dose 16 g a.i./ha): 70% | HER effect [%] ([1]; 21 DAT, HER dose 16 g a.i./ha): 95% | Reduction [%] [3, 11]: 38% | Reduction [Difference] [3, 11]: 30 | HER effect + SAF ([4]; 21 DAT, HER dose 1 g a.i./ha): 10% | Reduction [%] ([4]; 21 DAT, HER dose 1 g a.i./ha): 67% | HER effect ([4]; 21 DAT, HER dose 1 g a.i./ha): 30% | Reduction [%] ([4]; 21 DAT, HER dose 4 g a.i./ha): 78% | Reduction [Difference] ([4]; 21 DAT, HER dose 4 g a.i./ha): 73 | HER effect + SAF ([4]; 21 DAT, HER dose 16 g a.i./ha): 40% | Reduction [%] ([4]; 21 DAT, HER dose 16 g a.i./ha): 58% | Reduction [Difference] ([4]; 21 DAT, HER dose 16 g a.i./ha): 55

CC1(C(=O)NC2C=CC(C(=O)OCCCl)C2)CC(c2cc(F)cc(F)c2)=NO1 (mixture of isomers) [Example 1.47]
HER effect + SAF [%] ([1]; 21 DAT, HER dose 4 g a.i./ha): 10% | HER effect [%] ([1]; 21 DAT, HER dose 4 g a.i./ha): 30% | HER effect + SAF [%] ([1]; 21 DAT, HER dose 16 g a.i./ha): 10% | HER effect [%] ([1]; 21 DAT, HER dose 16 g a.i./ha): 80% | HER effect + SAF ([4]; 21 DAT, HER dose 12 g a.i./ha): 0% | HER effect ([4]; 21 DAT, HER dose 12 g a.i./ha): 20% | Reduction [Difference] ([4]; 21 DAT, HER dose 48 g a.i./ha): 75 | HER effect + SAF ([2]; 21 DAT, HER dose 4 g a.i./ha, cloquintocet-mexyl 50 g a.i./ha): 0% | HER effect + SAF [2, 12]: 5% | Reduction [%] [2, 12]: 94% | Reduction [Difference] [2, 12]: 75

COC(=O)C1COCC1NC(=O)C1(C)CC(c2cc(F)cc(F)c2)=NO1 (mixture of isomers) [Example 1.93]
HER effect + SAF [%] ([1]; 21 DAT, HER dose 2 g a.i./ha): 0% | HER effect [%] ([1]; 21 DAT, HER dose 2 g a.i./ha): 85% | HER effect + SAF [%] ([1]; 21 DAT, HER dose 8 g a.i./ha): 10% | HER effect [%] ([1]; 21 DAT, HER dose 8 g a.i./ha): 93% | HER effect + SAF [%] ([1]; 21 DAT, HER dose 32 g a.i./ha): 10% | HER effect [%] ([1]; 21 DAT, HER dose 32 g a.i./ha): 95% | HER effect + SAF [3, 13]: 60% | Reduction [%] [3, 13]: 29% | Reduction [Difference] [3, 13]: 25 | HER effect + SAF [3, 7]: 60% | Reduction [%] [3, 7]: 33% | Reduction [Difference] [3, 7]: 30 | HER effect + SAF ([4]; 10 DAT, HER dose 32 g a.i./ha): 20% | Reduction [%] ([4]; 10 DAT, HER dose 32 g a.i./ha): 78% | Reduction [Difference] ([4]; 10 DAT, HER dose 32 g a.i./ha): 70
